What all share (assay type): in vivo
Data set [1] deals with rats. Briefly: Cisternal compatibility (injection into suboccipital cisterna). The note with it: 0.008 - 0.200 ml./kg., methylglucamine salts, 200 mg. I/ml., neurological symptoms in 50% of animals, (1) = Iotalamat (H), (2) = compound. The protocol: (§1) All substances were tested as methylglucamine salts with 200 mg. I/ml. of solution. The intracerebral compatibility was determined on rats in accordance with Valzelli, Med. Exp. 11: 23-26 (1964).
In order to determine the cisternal compatibility, the test compounds were injected in varying doses (0.008 - 0.200 ml./kg.) by means of a Hamilton No. 710 syringe directly into the suboccipital cisterna of rats which were under a slight ether narcosis.
(§2) As a measure of physiological compatibility, the ED50 was determined in each case, i.e., the dose at which an undesired array of neurological symptoms (including convulsions and death) is evoked in 50% of the animals.

Data set [2] has as its system rats. Kind of data set: Intracerebral compatibility according to Valzelli. The note with it: methylglucamine salts, 200 mg. I/ml., dose evoking neurological symptoms (including convulsions and death) in 50% of animals, (1) = Iotalamat (H), (2) = compound. The protocol:
as §1, §2

For data set [3], the system named is rats. Kind of data set: Cerebral compatibility (injection into left common carotid artery). The note with it: 14.0 - 26.0 ml./kg., methylglucamine salts, 200 mg. I/ml., neurological symptoms in 50% of animals, (1) = Iotalamat (H), (2) = compound. The protocol: as §1
Cerebral compatibility was likewise determined on rats. In an operation under a slight ether narcosis, a catheter was affixed in the left common carotid artery; the distal end of the catheter, after having been passed through the lateral connective tissue of the neck, was fixed in the center of the back. Three hours later, the test compounds were cranially injected in varying doses (14.0 - 26.0 ml./kg.) into the artery.
as §2

The text below walks through data of patent US3953501A, “Triiodoisophthalic acid monoamino acid amides” (Schering Aktiengesellschaft, priority 1972, dated 1976).

Where “and” joins values, the source holds several entries; their conditions need not be identical. Equal values may be shown once.

For the molecule `CNC(=O)C(C)NC(=O)c1c(I)c(NC(C)=O)c(I)c(C(=O)O)c1I` (racemic) [B, N-(3-Carboxy-5-acetamido-2,4,6-triiodobenzoyl)-DL-alanine Methylamide], the “ED50 cisternal compatibility (myelography)” value in data set [1] is recorded as 16.7 mg. I/kg. Besides, in data set [2], the “ED50 intracerebral compatibility according to Valzelli (myelography)” value came to 66.30 mg. I/kg.
The corresponding values for `CC(=O)Nc1c(I)c(C(=O)O)c(I)c(C(=O)NCC(N)=O)c1I` [A, N-(3-Carboxy-5-acetamido-2,4,6-triiodobenzoyl)-glycine Amide] are 11.17 mg. I/kg and 70.72 mg. I/kg.
For the molecule `CNC(=O)c1c(I)c(NC(C)=O)c(I)c(C(=O)O)c1I` [H, 3-acetamido-5-methylcarbamoyl-2,4,6-triiodobenzoic acid, reference compound], the “ED50 cisternal compatibility (myelography)” value in data set [1] is 10.56 mg. I/kg. and 11.8 mg. I/kg. and 9.8 mg. I/kg. and 10.9 mg. I/kg. and 10.07 mg. I/kg. and 10.30 mg. I/kg. Further, the “ED50 intracerebral compatibility according to Valzelli (myelography)” value in data set [2] is 59.83 mg. I/kg. and 56.59 mg. I/kg. and 60.86 mg. I/kg. and 61.92 mg. I/kg. and 61.28 mg. I/kg.
Turning to `CNC(=O)C(CO)NC(=O)c1c(I)c(NC(=O)COC)c(I)c(C(=O)O)c1I` (racemic) [F, N-(3-Carboxy-5-methoxyacetamido-2,4,6-triiodobenzoyl)-DL-serine Methylamide], in data set [3], the “ED50 cerebral compatibility (angiography)” value (shortened to “ED50 cerebral compatibility”) was 3.78 g I/kg. The “ED50 cisternal compatibility (myelography)” value in data set [1] turned out to be 22.8 mg. I/kg. Besides, the “ED50 intracerebral compatibility according to Valzelli (myelography)” value in data set [2] worked out at 81.32 mg. I/kg.
In the case of `CNC(=O)c1c(I)c(NC(C)=O)c(I)c(C(=O)N(C)CC(=O)O)c1I` [D, N-(3-Methylaminocarbonyl-5-acetamido-2,4,6-triiodobenzoyl)-sarcosine], the “ED50 cerebral compatibility” value in data set [3] came to 3.99 g I/kg. Further, in data set [1], the “ED50 cisternal compatibility (myelography)” value amounted to 11.93 mg. I/kg. Also, in data set [2], the “ED50 intracerebral compatibility according to Valzelli (myelography)” value is 76.21 mg. I/kg.
Regarding `CNC(=O)CNC(=O)c1c(I)c(NC(=O)CO)c(I)c(C(=O)O)c1I` [G, N-(3-Carboxy-5-hydroxyacetamido-2,4,6-triiodobenzoyl)-glycine Methylamide], the “ED50 cerebral compatibility” value in data set [3] came to 3.55 g I/kg. The “ED50 cisternal compatibility (myelography)” value in data set [1] was determined as 11.8 mg. I/kg. The “ED50 intracerebral compatibility according to Valzelli (myelography)” value in data set [2] was 62.62 mg. I/kg.
As for `CNC(=O)CNC(=O)c1c(I)c(NC(=O)COC)c(I)c(C(=O)O)c1I` [C, N-(3-Carboxy-5-methoxyacetamido-2,4,6-triiodobenzoyl)-glycine Methylamide], the “ED50 cisternal compatibility (myelography)” value in data set [1] stood at 20.04 mg. I/kg. Moreover, the “ED50 intracerebral compatibility according to Valzelli (myelography)” value in data set [2] is 53.97 mg. I/kg.
For the molecule `CC(=O)Nc1c(I)c(C(N)=O)c(I)c(C(=O)NCC(=O)O)c1I` [E, N-(3-Aminocarbonyl-5-acetamido-2,4,6-triiodobenzoyl)-glycine], the “ED50 cisternal compatibility (myelography)” value in data set [1] was 14.42 mg. I/kg. The “ED50 intracerebral compatibility according to Valzelli (myelography)” value in data set [2] stood at 69.84 mg. I/kg.
